Measurements taken from ChEMBL document CHEMBL1153080, “Cytotoxicity mechanisms of pyrazino[1,2-b]isoquinoline-4-ones and SAR studies” (2009).
Calls of active or inactive are those of the source. The rule behind the calls is not given here.

Tests used:
A549 [1] = assay: Growth inhibition of human A549 cells; type: functional
A549 [2] = assay: Cytotoxicity against human A549 cells at < […] after 48 hrs by SRB assay; type: functional, cell-based
HT-29 [3] = assay: Cytotoxicity against human HT-29 cells at < […] after 48 hrs by SRB assay; type: functional, cell-based
MDA-MB-231 = assay: Cytotoxicity against human MDA-MB-231 cells at < […] after 48 hrs by SRB assay; type: functional, cell-based
HT-29 [4] = assay: Cell cycle arrest in human HT-29 cells assessed as accumulation at G1 phase at 41 ug/mL after 24 hrs using propidium iodide staining by flow cytometry; type: functional
HT-29 [5] = assay: Cell cycle arrest in human HT-29 cells assessed as accumulation at S phase at 41 ug/mL after 24 hrs using propidium iodide staining by flow cytometry; type: functional
HT-29 [6] = assay: Induction of increase in histone gamma-H2A.X levels in human HT-29 cells at 41 ug/mL after 24 to 60 hrs by Western blotting; type: functional, cell-based
HT-29 [7] = assay: Induction of DNA damage signaling pathways in human HT-29 cells assessed as Chk1 phosphorylation at 41 ug/mL after 24 hrs by Western blotting; type: functional, cell-based
HT-29 [8] = assay: Growth inhibition of human HT-29 cells; type: functional
HT-29 [9] = assay: Cell cycle arrest in human HT-29 cells assessed as accumulation at G2/M phase at 41 ug/mL after 24 hrs using propidium iodide staining by flow cytometry; type: functional
HT-29 [10] = assay: Induction Wee1 protein degradation in human HT-29 cells at 41 ug/mL after 24 to 60 hrs by Western blotting; type: functional, cell-based
HT-29 [11] = assay: Induction Cyclin B1 protein degradation in human HT-29 cells at 41 ug/mL after 24 to 60 hrs by Western blotting; type: functional, cell-based
HT-29 [12] = assay: Cell cycle arrest in 0.2 ug/mL nocodazole pretreated human HT-29 cells assessed as accumulation at G1 phase at 41 ug/mL after 72 hrs using propidium iodide staining by flow cytometry; type: functional
HT-29 [13] = assay: Induction of DNA damage signaling pathways in human HT-29 cells assessed as p53 phosphorylation at 41 ug/mL after 24 hrs by Western blotting; type: functional, cell-based
HT-29 [14] = assay: Induction of apoptosis in human HT-29 cells at 41 ug/mL after 72 hrs using propidium iodide staining by flow cytometry; type: functional
HT-29 [15] = assay: Reduction of phosphorylated cdc2 protein level in 0.2 ug/mL nocodazole pretreated human HT-29 cells at 41 ug/mL after 24 to 72 hrs by Western blotting; type: functional, cell-based
HT-29 [16] = assay: Induction cdc2 protein degradation in 300 uM protein synthesis inhibitor cycloheximide pretreated human HT-29 cells at 41 ug/mL after 6 to 36 hrs by Western blotting; type: functional, cell-based
HT-29 [17] = assay: Cytotoxicity against human HT-29 cells assessed as reduction in cell viability at 41 ug/mL after 48 hrs by MTT assay; type: functional; conditions: HT-29, 48 h
HT-29 [18] = assay: Cell cycle arrest in 0.2 ug/mL nocodazole pretreated human HT-29 cells assessed as accumulation at G2/M phase at 41 ug/mL after 72 hrs using propidium iodide staining by flow cytometry; type: functional
HT-29 [19] = assay: Induction cdc2 protein degradation in 10 uM proteasome inhibitor MG132 pretreated human HT-29 cells at 41 ug/mL after 6 to 36 hrs by Western blotting; type: functional, cell-based
HT-29 [20] = assay: Cell cycle arrest in human HT-29 cells assessed as accumulation at G2/M phase at 41 ug/mL after 72 hrs using propidium iodide staining by flow cytometry; type: functional
HT-29 [21] = assay: Induction of DNA damage signaling pathways in human HT-29 cells assessed as Chk2 phosphorylation at 41 ug/mL after 24 hrs by Western blotting; type: functional, cell-based
HT-29 [22] = assay: Cell cycle arrest in 0.2 ug/mL nocodazole pretreated human HT-29 cells assessed as accumulation at S phase at 41 ug/mL after 72 hrs using propidium iodide staining by flow cytometry; type: functional
HT-29 [23] = assay: Cell cycle arrest in human HT-29 cells assessed as accumulation at G1 phase at 41 ug/mL after 72 hrs using propidium iodide staining by flow cytometry; type: functional
HT-29 [24] = assay: Induction of apoptosis in human HT-29 cells at 41 ug/mL after 24 hrs using propidium iodide staining by flow cytometry; type: functional
HT-29 [25] = assay: Cell cycle arrest in human HT-29 cells assessed as accumulation at S phase at 41 ug/mL after 72 hrs using propidium iodide staining by flow cytometry; type: functional
HT-29 [26] = assay: Induction cdc2 protein degradation in human HT-29 cells at 41 ug/mL after 24 to 60 hrs by Western blotting; type: functional, cell-based
HT-29 [27] = assay: Induction Wee1 protein degradation in 10 uM proteasome inhibitor MG132 pretreated human HT-29 cells at 41 ug/mL after 6 to 36 hrs by Western blotting; type: functional, cell-based
HT-29 [28] = assay: Induction Wee1 protein degradation in 300 uM protein synthesis inhibitor cycloheximide pretreated human HT-29 cells at 41 ug/mL after 6 to 36 hrs by Western blotting; type: functional, cell-based
HT-29 [29] = assay: Induction of apoptosis in 0.2 ug/mL nocodazole pretreated human HT-29 cells at 41 ug/mL after 72 hrs using propidium iodide staining by flow cytometry; type: functional

Structure (SMILES): COc1c(C)c(OC)c(OC)c2c1C[C@H]1[C@@H](O)N(C(=O)OC(C)C)CC(=O)N1[C@H]2COCc1ccccc1
- GI (A549 [1]): 5.68 ×10⁻⁶ M

Structure (SMILES): COc1c(C)c(OC)c(OC)c2c1C[C@H]1CN(C(=O)OC(C)C)C[C@@H](C#N)N1[C@H]2CO (relative stereo)
- inhibition (A549 [2]): inactive
- inhibition (HT-29 [3]): inactive
- inhibition (MDA-MB-231): inactive

Structure (SMILES): COc1c(C)c(OC)c(OC)c2c1C[C@H]1CN(C)C[C@H]3OC[C@@H]2N13 (relative stereo)
- inhibition (A549 [2]): inactive
- inhibition (HT-29 [3]): inactive
- inhibition (MDA-MB-231): inactive

Structure (SMILES): COc1c(C)c(OC)c(OC)c2c1C[C@H]1CN(C)CC(=O)N1[C@H]2CO (relative stereo)
- inhibition (A549 [2]): inactive
- inhibition (HT-29 [3]): inactive
- inhibition (MDA-MB-231): inactive

Structure (SMILES): COc1c(C)c(OC)c(OC)c2c1C[C@H]1CNCC(=O)N1[C@H]2CO (relative stereo)
- inhibition (A549 [2]): inactive
- inhibition (HT-29 [3]): inactive
- inhibition (MDA-MB-231): inactive

Structure (SMILES): COc1c(C)c(OC)c(OC)c2c1C[C@H]1CN(C(=O)OC(C)C)C[C@H]3OC[C@@H]2N13 (relative stereo)
- inhibition (A549 [2]): inactive
- inhibition (HT-29 [3]): inactive
- inhibition (MDA-MB-231): inactive

Structure (SMILES): COc1c(C)c(OC)c(OC)c2c1C[C@H]1CN(C(=O)OC(C)C)CC(=O)N1[C@H]2CO
- inhibition (A549 [2]): inactive
- inhibition (HT-29 [3]): inactive
- inhibition (MDA-MB-231): inactive

Structure (SMILES): COc1c(C)c(OC)c(OC)c2c1C[C@H]1CN(C(=O)OC(C)C)C[C@@H](C#N)N1[C@H]2COC(=O)/C=C/c1ccccc1 (relative stereo)
- inhibition (A549 [2]): inactive
- inhibition (HT-29 [3]): inactive
- inhibition (MDA-MB-231): inactive

Structure (SMILES): COc1c(C)c(OC)c(OC)c2c1C[C@H]1CN(C(=O)OC(C)C)CC(=O)N1[C@H]2COCc1ccccc1
- Activity (HT-29 [4]): 61.4%
- Activity (HT-29 [5]): 15.2%
- Activity (HT-29 [6]): inactive
- Activity (HT-29 [7]): inactive
- GI (HT-29 [8]): 1.95 ×10⁻⁷ M
- Activity (HT-29 [9]): 16.4%
- Activity (HT-29 [10]): inactive
- inhibition (A549 [2]): Active
- Activity (HT-29 [11]): inactive
- Activity (HT-29 [12]): 31%
- Activity (HT-29 [13]): inactive
- inhibition (HT-29 [3]): Active
- Activity (HT-29 [14]): 29.9%
- Activity (HT-29 [15]): Active
- Activity (HT-29 [16]): Active
- inhibition at 41 µg/mL (HT-29 [17]): 80%
- Activity (HT-29 [18]): 18.3%
- Activity (HT-29 [19]): Active
- Activity (HT-29 [20]): 10.4%
- Activity (HT-29 [21]): inactive
- Activity (HT-29 [22]): 13.4%
- Activity (HT-29 [23]): 45.9%
- inhibition (MDA-MB-231): Active
- Activity (HT-29 [24]): 4.3%
- Activity (HT-29 [25]): 12.8%
- Activity (HT-29 [26]): inactive
- Activity (HT-29 [27]): inactive
- Activity (HT-29 [28]): Active
- Activity (HT-29 [29]): 35.6%

Structure (SMILES): COc1c(C)c(OC)c(OC)c2c1C[C@H]1CN(C(=O)OC(C)C)C[C@@H](C#N)N1[C@H]2COC(=O)c1cccc2ccccc12 (relative stereo)
- inhibition (A549 [2]): inactive
- inhibition (HT-29 [3]): inactive
- inhibition (MDA-MB-231): inactive

Structure (SMILES): COc1c(C)c(OC)c(OC)c2c1C[C@H]1CN(C(=O)OC(C)C)CC(=O)N1[C@H]2CO[Si](c1ccccc1)(c1ccccc1)C(C)(C)C (relative stereo)
- inhibition (A549 [2]): inactive
- inhibition (HT-29 [3]): inactive
- inhibition (MDA-MB-231): inactive
